Laboratory results taken from ChEMBL document CHEMBL1201862, “PubChem BioAssay data set” (2004).
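Briefly, cells in 96-well plates were exposed to five compound concentrations for 48 h, and endpoints were estimated by linear interpolation. GI50 marks 50% less growth.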 Calls of active or inactive are those of the source. Cut-off read from the data, not from the text of the source: active = GI50 up to about 1.1 µM and inactive = higher.

Experiments:
Assay in all cases: NCI-60 cell line screen, 48 h
HCT-116 = tested on: HCT-116
SK-MEL-5 = tested on: SK-MEL-5
NCI-H460 = tested on: NCI-H460
NCI-H522 = tested on: NCI-H522
NCI/ADR-RES = tested on: NCI/ADR-RES
BT-549 = tested on: BT-549
CCRF-CEM = tested on: CCRF-CEM
T47D = tested on: T47D
SNB-75 = tested on: SNB-75
LOX IMVI = tested on: LOX IMVI
OVCAR-5 = tested on: OVCAR-5
SF-295 = tested on: SF-295
IGROV-1 = tested on: IGROV-1
NCI-H226 = tested on: NCI-H226
UACC-257 = tested on: UACC-257
UO-31 = tested on: UO-31
786-0 = tested on: 786-0
Malme-3M = tested on: Malme-3M
MDA-MB-231 = tested on: MDA-MB-231
SN12C = tested on: SN12C
Hs-578T = tested on: Hs-578T
MCF7 = tested on: MCF7
ACHN = tested on: ACHN
RXF 393 = tested on: RXF 393
SW-620 = tested on: SW-620
M14 = tested on: M14
HOP-92 = tested on: HOP-92
COLO 205 = tested on: COLO 205
A549 = tested on: A549
UACC-62 = tested on: UACC-62
NCI-H23 = tested on: NCI-H23
A498 = tested on: A498
SF-539 = tested on: SF-539
PC-3 = tested on: PC-3
KM12 = tested on: KM12
HT-29 = tested on: HT-29
MDA-MB-435 = tested on: MDA-MB-435
SR = tested on: SR
SNB-19 = tested on: SNB-19
SK-OV-3 = tested on: SK-OV-3
SF-268 = tested on: SF-268
SK-MEL-28 = tested on: SK-MEL-28
RPMI-8226 = tested on: RPMI-8226
HOP-62 = tested on: HOP-62
HL-60 = tested on: HL-60
K562 = tested on: K562
HCT-15 = tested on: HCT-15
TK-10 = tested on: TK-10
U-251 = tested on: U-251
OVCAR-8 = tested on: OVCAR-8
MOLT-4 = tested on: MOLT-4
CAKI-1 = tested on: CAKI-1
SK-MEL-2 = tested on: SK-MEL-2
EKVX = tested on: EKVX
MDA-N = tested on: MDA-N
OVCAR-4 = tested on: OVCAR-4
OVCAR-3 = tested on: OVCAR-3
DU-145 = tested on: DU-145
HCC 2998 = tested on: HCC 2998

O=[N+]([O-])c1cc(CCl)ccc1CCl
GI50 (HCT-116): 1.69 µM (inactive) | GI50 (SK-MEL-5): 2.67 µM (inactive) | GI50 (NCI-H460): 3.44 µM (inactive) | GI50 (NCI-H522): 1.73 µM (inactive) | GI50 (NCI/ADR-RES): 2.7 µM (inactive) | GI50 (BT-549): 3.07 µM (inactive) | GI50 (CCRF-CEM): 0.504 µM (active) | GI50 (T47D): 0.676 µM (active) | GI50 (SNB-75): 2.13 µM (inactive) | GI50 (LOX IMVI): 1.85 µM (inactive) | GI50 (OVCAR-5): 2.62 µM (inactive) | GI50 (SF-295): 6.82 µM (inactive) | GI50 (IGROV-1): 1.56 µM (inactive) | GI50 (NCI-H226): 3.78 µM (inactive) | GI50 (UACC-257): 3.07 µM (inactive) | GI50 (UO-31): 1.66 µM (inactive) | GI50 (786-0): 1.67 µM (inactive) | GI50 (Malme-3M): 1.74 µM (inactive) | GI50 (MDA-MB-231): 2.33 µM (inactive) | GI50 (SN12C): 1.53 µM (inactive) | GI50 (Hs-578T): 2.72 µM (inactive) | GI50 (MCF7): 1.63 µM (inactive) | GI50 (ACHN): 1.72 µM (inactive) | GI50 (RXF 393): 0.585 µM (active) | GI50 (SW-620): 2.17 µM (inactive) | GI50 (M14): 1.74 µM (inactive) | GI50 (HOP-92): 1.76 µM (inactive) | GI50 (COLO 205): 1.71 µM (inactive) | GI50 (A549): 5.79 µM (inactive) | GI50 (UACC-62): 4.41 µM (inactive) | GI50 (NCI-H23): 2.16 µM (inactive) | GI50 (A498): 6.59 µM (inactive) | GI50 (SF-539): 2.56 µM (inactive) | GI50 (PC-3): 1.64 µM (inactive) | GI50 (KM12): 1.66 µM (inactive) | GI50 (HT-29): 1.71 µM (inactive) | GI50 (MDA-MB-435): 2.12 µM (inactive) | GI50 (SR): 0.893 µM (active) | GI50 (SNB-19): 1.89 µM (inactive) | GI50 (SK-OV-3): 13.3 µM (inactive) | GI50 (SF-268): 1.99 µM (inactive) | GI50 (SK-MEL-28): 2.06 µM (inactive) | GI50 (RPMI-8226): 1.48 µM (inactive) | GI50 (HOP-62): 1.54 µM (inactive) | GI50 (HL-60): 2.11 µM (inactive) | GI50 (K562): 2.24 µM (inactive) | GI50 (HCT-15): 1.84 µM | GI50 (TK-10): 2.96 µM (inactive) | GI50 (U-251): 1.75 µM (inactive) | GI50 (OVCAR-8): 2.4 µM (inactive) | GI50 (MOLT-4): 2.1 µM (inactive) | GI50 (CAKI-1): 1.35 µM (inactive) | GI50 (SK-MEL-2): 2.72 µM (inactive) | GI50 (EKVX): 1.82 µM (inactive) | GI50 (MDA-N): 1.87 µM (inactive) | GI50 (OVCAR-4): 1.76 µM (inactive) | GI50 (OVCAR-3): 1.87 µM (inactive) | GI50 (DU-145): 1.63 µM (inactive) | GI50 (HCC 2998): 2.48 µM (inactive)

COc1cccc2cc(C(=O)NC34CC5CC(CC(C5)C3)C4)c(=N)oc12
GI50 (HCT-116): 52.1 µM (inactive) | GI50 (SK-MEL-5): > 69.2 µM (inactive) | GI50 (NCI-H460): > 89.7 µM (inactive) | GI50 (NCI-H522): 23.4 µM (inactive) | GI50 (NCI/ADR-RES): > 86.1 µM (inactive) | GI50 (BT-549): > 80.7 µM (inactive) | GI50 (CCRF-CEM): 8.04 µM (inactive) | GI50 (T47D): 18.2 µM (inactive) | GI50 (SNB-75): 44.6 µM (inactive) | GI50 (LOX IMVI): > 52.8 µM (inactive) | GI50 (OVCAR-5): > 100 µM (inactive) | GI50 (SF-295): 68.5 µM (inactive) | GI50 (IGROV-1): > 46.3 µM (inactive) | GI50 (NCI-H226): > 61 µM (inactive) | GI50 (UACC-257): > 89.3 µM (inactive) | GI50 (UO-31): 2.67 µM (inactive) | GI50 (786-0): 59.8 µM (inactive) | GI50 (Malme-3M): > 86.5 µM (inactive) | GI50 (MDA-MB-231): > 100 µM (inactive) | GI50 (SN12C): > 100 µM (inactive) | GI50 (Hs-578T): 34 µM (inactive) | GI50 (MCF7): 13.2 µM (inactive) | GI50 (ACHN): > 67.6 µM (inactive) | GI50 (RXF 393): 33.6 µM (inactive) | GI50 (SW-620): 49.9 µM (inactive) | GI50 (M14): > 100 µM (inactive) | GI50 (HOP-92): > 36.2 µM (inactive) | GI50 (COLO 205): 58.3 µM (inactive) | GI50 (A549): 64.7 µM (inactive) | GI50 (UACC-62): > 100 µM (inactive) | GI50 (NCI-H23): > 100 µM (inactive) | GI50 (A498): > 100 µM (inactive) | GI50 (SF-539): > 34.3 µM (inactive) | GI50 (PC-3): 56.6 µM (inactive) | GI50 (KM12): 54.6 µM (inactive) | GI50 (HT-29): 47.1 µM (inactive) | GI50 (MDA-MB-435): > 82.4 µM (inactive) | GI50 (SR): 10.2 µM (inactive) | GI50 (SNB-19): 73.8 µM (inactive) | GI50 (SK-OV-3): 58.6 µM (inactive) | GI50 (SF-268): 78.9 µM (inactive) | GI50 (SK-MEL-28): > 71 µM (inactive) | GI50 (RPMI-8226): 25.6 µM (inactive) | GI50 (HOP-62): 53.1 µM (inactive) | GI50 (HL-60): 3.13 µM (inactive) | GI50 (K562): 50.9 µM (inactive) | GI50 (HCT-15): 49.8 µM | GI50 (TK-10): 64 µM (inactive) | GI50 (U-251): 55.3 µM (inactive) | GI50 (OVCAR-8): 23.8 µM (inactive) | GI50 (MOLT-4): 1.35 µM (inactive) | GI50 (CAKI-1): 99.5 µM (inactive) | GI50 (SK-MEL-2): > 95.1 µM (inactive) | GI50 (EKVX): > 61.8 µM (inactive) | GI50 (MDA-N): > 100 µM (inactive) | GI50 (OVCAR-4): > 60.4 µM (inactive) | GI50 (OVCAR-3): 24.6 µM (inactive) | GI50 (DU-145): > 100 µM (inactive) | GI50 (HCC 2998): > 54.2 µM (inactive)
